Read-outs that look alike come from different tables or passages of the source. Some results are limits rather than exact numbers.

For the assay, the target named is T1, human SARM1(50-724) (Homo sapiens, UniProt Q6SZW1).
T1 construct: 40 nM human SARM1(50-724)
T1 sequence (Q6SZW1 50-724): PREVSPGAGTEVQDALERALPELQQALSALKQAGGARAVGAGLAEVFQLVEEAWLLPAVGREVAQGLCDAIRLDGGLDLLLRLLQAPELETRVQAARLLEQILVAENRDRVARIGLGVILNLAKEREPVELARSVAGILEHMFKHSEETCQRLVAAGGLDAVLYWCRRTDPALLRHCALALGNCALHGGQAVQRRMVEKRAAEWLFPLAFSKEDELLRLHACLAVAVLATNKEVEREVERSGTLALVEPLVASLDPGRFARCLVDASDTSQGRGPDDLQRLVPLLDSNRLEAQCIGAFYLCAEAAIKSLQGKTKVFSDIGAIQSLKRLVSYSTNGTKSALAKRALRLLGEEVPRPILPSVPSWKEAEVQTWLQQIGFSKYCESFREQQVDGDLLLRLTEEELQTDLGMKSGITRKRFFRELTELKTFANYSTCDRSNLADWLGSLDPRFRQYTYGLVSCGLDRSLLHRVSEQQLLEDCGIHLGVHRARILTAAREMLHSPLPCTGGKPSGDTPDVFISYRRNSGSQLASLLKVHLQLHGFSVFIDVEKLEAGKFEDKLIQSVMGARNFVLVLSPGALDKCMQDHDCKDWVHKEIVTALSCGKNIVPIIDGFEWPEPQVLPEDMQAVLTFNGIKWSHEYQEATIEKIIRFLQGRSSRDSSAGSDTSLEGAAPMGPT
The assay can be described thus: SARM1 NADase biochemical assay (HPLC peak areas of NAD and NAM). The following applies: for IC50: dose-response, 1:3 serial dilution from 100 μM, 40 nM SARM1, 0.3 mM NMN, 20 μM NAD, 60 min rt.

[1] abbreviates: 50 μM compound, NAD peak area, read-out: Avg NAD % inhibition at 50 μM.
Setting [2] is: 50 μM compound, NAM peak area, read-out: Avg NAM % inhibition at 50 μM.

Regarding `FCCNc1ccn(Cc2ccncc2)n1` [Example 96, N-(2-Fluoroethyl)-1-(pyridin-4-ylmethyl)-1H-pyrazol-3-amine], the inhibition at 50 µM is, setting by setting: (read-out: Avg NAD % inhibition at 50 μM) 51 to 100%; (read-out: Avg NAM % inhibition at 50 μM) 51 to 100%.

As for `c1cc(Cn2ccc(NC3CCC3)n2)ccn1` [Example 97, N-Cyclobutyl-1-(pyridin-4-ylmethyl)-1H-pyrazol-3-amine], the inhibition at 50 µM lay within 0 to 50% under setting [1] and 0 to 50% under setting [2].

As to `c1cc(Cn2ccc(NC3CC3)n2)ccn1` [Example 98, N-Cyclopropyl-1-(pyridin-4-ylmethyl)-1H-pyrazol-3-amine], the inhibition at 50 µM under setting [1] was 0 to 50% and the inhibition at 50 µM under setting [2] lay in the range of 0 to 50%.

Take `FC(F)Cc1ccn(Cc2ccncc2)n1` [Example 102, 4-{[3-(2,2-Difluoroethyl)-1H-pyrazol-1-yl]methyl}pyridine]: the IC50 is 1 to 10 µM.

For `FC(F)(F)C(F)(F)c1ccn(Cc2ccncc2)n1` [Example 103, 4-{[3-(1,1,2,2,2-Pentafluoroethyl)-1H-pyrazol-1-yl]methyl}pyridine], the IC50 lay within 1 to 10 µM.

Consider `O=C(CCc1ccc(Cl)cc1)Nc1ccn(Cc2ccncc2)n1` [Example 106, 3-(4-Chlorophenyl)-N-{1-[(pyridin-4-yl)methyl]-1H-pyrazol-3-yl}propanamide], for which the inhibition at 50 µM runs as follows: under setting [1], 0 to 50%; under setting [2], 0 to 50%.

`Cc1cnccc1Cn1ccc(CC(F)(F)F)n1` [Example 109, 3-Methyl-4-{[3-(2,2,2-trifluoroethyl)-1H-pyrazol-1-yl]methyl}pyridine] registered an IC50 of 1 to 10 µM.

“(R)-2-(1-(1-(pyridin-4-yl)ethyl)-1H-pyrazol-3-yl)acetonitrile and (S)-2-(1-(1-(pyridin-4-yl)ethyl)-1H-pyrazol-3-yl)acetonitrile [Example 28]” yielded an IC50 of 1 to 10 µM.

With “(R)-2-((1-(1-(Pyridin-4-yl)ethyl)-1H-pyrazol-3-yl)amino)acetonitrile and (S)-2-((1-(1-(pyridin-4-yl)ethyl)-1H-pyrazol-3-yl)amino)acetonitrile [Example 6]”, the IC50 is 1 to 10 µM.

“(R)-3-Chloro-4-(1-(1-(2,2,2-trifluoroethyl)-1H-pyrazol-3-yl)ethyl)pyridine and (S)-3-Chloro-4-(1-(1-(2,2,2-trifluoroethyl)-1H-pyrazol-3-yl)ethyl)pyridine [Example 113]” returned an IC50 of 1 to 10 µM.

In turn, “(R)-3-Fluoro-4-(1-(1-(2,2,2-trifluoroethyl)-1H-pyrazol-3-yl)ethyl)pyridine and (S)-3-Fluoro-4-(1-(1-(2,2,2-trifluoroethyl)-1H-pyrazol-3-yl)ethyl)pyridine [Example 78]” returned an IC50 of 1 to 10 µM.

Turning to “(R)-4-(1-(1-(2,2-Difluoroethyl)-1H-pyrazol-3-yl)ethyl)pyridine and (S)-4-(1-(1-(2,2-Difluoroethyl)-1H-pyrazol-3-yl)ethyl)pyridine [Example 110]”, the IC50 is 10 to 100 µM.

On to “(R)-4-(1-(1-(2,2-Difluoroethyl)-1H-pyrazol-3-yl)ethyl)pyridine and (S)-4-(1-(1-(2,2-Difluoroethyl)-1H-pyrazol-3-yl)ethyl)pyridine [Example 111]”, for which the IC50 lay in the range of 1 to 10 µM.

Take “(R)-4-(1-(1-(2,2-Difluoroethyl)-1H-pyrazol-3-yl)ethyl-2,2,2-d3)pyridine and (S)-4-(1-(1-(2,2-Difluoroethyl)-1H-pyrazol-3-yl)ethyl-2,2,2-d3)pyridine [Example 114]”: the “Avg NAD % inhibition at 50 μM” value (50 μM compound, NAD peak area) is “* (% Inhibition 0-50%)”. Besides, the “Avg NAM % inhibition at 50 μM” value (50 μM compound, NAM peak area) is listed as “* (% Inhibition 0-50%)”.

As for “(R)-4-(1-(1-(2,2-Difluoroethyl)-1H-pyrazol-3-yl)ethyl-2,2,2-d3)pyridine and (S)-4-(1-(1-(2,2-Difluoroethyl)-1H-pyrazol-3-yl)ethyl-2,2,2-d3)pyridine [Example 114a]”, the IC50 was in the range of 1 to 10 µM.

With “(S)-2-(1-(1-(Pyridin-4-yl)ethyl)-1H-pyrazol-3-yl)acetonitrile and (R)-2-(1-(1-(Pyridin-4-yl)ethyl)-1H-pyrazol-3-yl)acetonitrile [Example 27]”, the IC50 fell in the range of 1 to 10 µM.

For the molecule “(S)-2-((1-(1-(Pyridin-4-yl)ethyl)-1H-pyrazol-3-yl)amino)acetonitrile and (R)-2-((1-(1-(Pyridin-4-yl)ethyl)-1H-pyrazol-3-yl)amino)acetonitrile [Example 7]”, the IC50 was 1 to 10 µM.

Molecule “(S)-4-(1-(1-(2,2,2-Trifluoroethyl)-1H-pyrazol-3-yl)ethyl)pyridine and (R)-4-(1-(1-(2,2,2-Trifluoroethyl)-1H-pyrazol-3-yl)ethyl)pyridine [Example 13a]” gave an IC50 below 1 µM.

With “(S)-4-(1-(1-(2,2,2-Trifluoroethyl)-1H-pyrazol-3-yl)ethyl)pyridine and (R)-4-(1-(1-(2,2,2-Trifluoroethyl)-1H-pyrazol-3-yl)ethyl)pyridine [Example 13b]”, the “Avg NAD % inhibition at 50 μM” value (50 μM compound, NAD peak area) was “** (51-100%)”. Also, the “Avg NAM % inhibition at 50 μM” value (50 μM compound, NAM peak area) is “** (51-100%)”.

For “(S)—N-(2,2-Difluoroethyl)-1-(1-(pyridin-4-yl)ethyl)-1H-pyrazol-3-amine and (R)—N-(2,2-Difluoroethyl)-1-(1-(pyridin-4-yl)ethyl)-1H-pyrazol-3-amine [Example 8a]”, the “Avg NAD % inhibition at 50 μM” value (50 μM compound, NAD peak area) was “* (% Inhibition 0-50%)”. Further, the “Avg NAM % inhibition at 50 μM” value (50 μM compound, NAM peak area) was “* (% Inhibition 0-50%)”.

Turning to “(S)—N-(2,2-Difluoroethyl)-1-(1-(pyridin-4-yl)ethyl)-1H-pyrazol-3-amine and (R)—N-(2,2-Difluoroethyl)-1-(1-(pyridin-4-yl)ethyl)-1H-pyrazol-3-amine [Example 8b]”, the IC50 is below 1 µM.

(Values after patent publication US11945796B2, “Substituted pyridine derivatives as SARM1 inhibitors” (Nura Bio, Inc., priority 2020, dated 2024).)
